The subject of series [1] is E. coli. Briefly: PI uptake assay, flow cytometry. In kind it is cell-based. As to conditions: 4× MIC, 2 h. As for the experimental part: (§1) E. coli were mixed with different concentrations of MSI-1, incubated for 2 h, resuspended by PI solution (20 μg/ml), and ultimately subjected to flow cytometry for PI uptake assay. Calcein-loaded liposomes were prepared to imitate bacterial membrane. Serially diluted peptide was added into liposomes (1:1, v:v) after obtaining the fluorescence intensity at λex/λem=490/520 nm. Once MSI-1 addition, fluorescence intensity was detected at 0, 3, 5, 10, 15 and 20 min. Calcein release rate was calculated as previously described. To observe bacterial morphology, E. coli treated with MSI-1 (32 μg/ml) or PBS for 2 h was collected, fixed by 2.5% glutaraldehyde and subjected to scanning electron microscopy (SEM) assay (SUI510, Hitachi, Japan). In addition, E. coli were resuspended in reaction buffer (60 mM Na2HPO4^. 7H2O, 40 mM NaH2PO4^. H2O, 10 mM KCl, 1 mM MgSO4.7H2O, 0.27% 2-Mercaptoethanol), incubated with ONPG (2.5 mg/ml) and MSI-1 for 2 h. Bacteria envelope integrity was calculated by the percentage of O-nitrophenol production.
(In general: In flow cytometry, cells or beads pass a laser one at a time.)

The nature of series [2]: Calcein release from liposomes. The note with it: 4× MIC. Here is the method: as §1
For series [3], the system named is E. coli. Briefly: ONPG assay, release of cytoplasmic β-galactosidase. In kind it is cell-based. As to conditions: 2 h. As for the experimental part: as §1
A further series is described as follows: Plasma stability. In kind it is in vitro ADME, mouse. As to conditions: for antibacterial activities after plasma incubation: turbidimetry.
The subject of another series is HaCaT cells. The experiment in a line: Wound scratch assay. In kind it is cell-based. As to conditions: cell scratch assay. Here is the method: To further investigate whether MSI-1 could protect from bacterial infection of the skin, mice were anesthetized with pentobarbital sodium (50 mg/kg, i.p) and shaved on the dorsal surfaces. The depilated skin was secured with 2-cm-diameter plastic containers that filled up with boiling water at contact time 10 s. Afterwards, a full-thickness wound (2 cm in diameter) was cut on the burned skin of each mouse. Penicillin-resistant E. coli suspension (100 µl, 1× 10^10 CFU/ml) was slowly inoculated over wound with a pipette tip, and a gentle stream of air was aimed over the inoculation site until skin appeared wet but absent of any standing volume from the inoculum suspension. Two hours later, vehicle (3% CMC-Na), MSI-1 or polymyxin, which was suspended in sterile CMC-Na (3%) in PBS at concentration of 10, 5, 2.5 mg/ml (MSI-1) or 5 mg/ml (polymyxin), was inoculated on the same area with a pipette tip, 1 ml/kg, once a day (n=15 per group). Mice were fed in cages individually to avoid cross infection and were treated daily for 7 consecutive days. At 3rd and 7th days, cutaneous wound healing and bacteria counts in skin lesion were measured. Moreover, 12 h after the last treatment, blood samples were collected from the retro-orbital venous plexus under anesthesia (pentobarbital sodium, 50 mg/kg). […] The contents of TNF-α and IL-6 in skin homogenates and serum were measured by ELISA. […]

The conditions of series [4]: 20% fresh mouse serum, turbidimetry.
Source text: (§2) At indicated time points, samples were denatured with equal volumes of 6 M urea and subjected to HPLC analysis or antibacterial activity evaluation.
The next series is described as follows: pH stability. The series is classed as physicochemical. Here is the method:
MSI-1 at 2 mg/ml in PBS (pH 7.0), aqueous HCl (pH 3.0) and aqueous NaOH (pH 11.0) were incubated for 2, 4, 12 and 24 h at 37 °C. The remaining MSI-1 was measured by HPLC. In addition, the bacteria colonies survived 1× MIC of HCl or NaOH treated peptide were recorded simultaneously. That is, after 18 h coincubation, the absorbance which represents the bacteria colonies survived, was recorded by a microplate reader at 600 nm.

The subject of series [5] is penicillin resistant-E. coli isolates. The experiment in a line: Acute systemic E. coli infection in mice. The series is classed as in vivo, BALB/c mice. The note with it: for survival rate enhanced compared with the model group: doses 10, 5 and 2.5 mg/kg. Here is the method: BALB/c mice (5-6 weeks) were purchased from the Laboratory Animal Center of Yangzhou University (Yangzhou, Jiangsu, China) and intraperitoneally (ip) injected with 500 μl (5× 10^8 CFU/ml) of penicillin resistant-E. coli isolates. Mice in MSI-1 treated groups (10, 5 and 2.5 mg/kg, n=16/group) and polymyxin treated group (5 mg/kg) were administered after 2 h post bacterial inoculation. After 12 h, six mice in each group were anesthetized with pentobarbital sodium (50 mg/kg body weight, i.p) and euthanized by cervical dislocation to count bacterial colonies in blood, lung, spleen, kidney and liver. Lung homogenates were collected for Gram staining. Moreover, serum TNF-α and IL-6 were measured by ELISA kits. The procedure of H&E staining for mouse lung was adapted from a published report. The survival and weight of other mice were monitored daily up to 7 days.

A further series deals with pepsin (Sus scrofa, UniProt P00791). As to conditions: peptide:protease 300:1, 0.1 M NH4HCO3 pH 8.2, room temperature, HPLC; peak time shifted from 6.187 to 6.792 min (0.5 h).

Like-named read-outs stand apart in the source and are kept apart here. Peptide text beside a SMILES is read from it.

A word on the share remaining: it is the share of the starting amount still present when the sample was taken.

Sequence of pepsin (P00791 60-385): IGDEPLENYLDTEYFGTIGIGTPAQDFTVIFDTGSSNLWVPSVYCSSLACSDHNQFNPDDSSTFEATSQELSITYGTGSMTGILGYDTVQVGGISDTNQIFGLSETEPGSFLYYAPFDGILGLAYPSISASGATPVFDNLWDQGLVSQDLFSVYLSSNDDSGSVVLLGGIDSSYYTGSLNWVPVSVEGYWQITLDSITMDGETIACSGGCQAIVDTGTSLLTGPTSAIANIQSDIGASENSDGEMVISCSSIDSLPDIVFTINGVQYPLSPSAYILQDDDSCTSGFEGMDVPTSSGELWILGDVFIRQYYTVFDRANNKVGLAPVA
Source text for Plasma stability: as §2
Source text for pepsin: Aliquots of the mixture were extracted periodically and diluted with water/acetonitrile (3:2, v:v) containing 2% TFA for HPLC detection or for antibacterial activity assay [18].

`CC[C@H](C)[C@H](NC(=O)CN)C(=O)N[C@@H](Cc1c[nH]c2ccccc12)C(=O)N[C@@H](CCCCN)C(=O)N[C@@H](Cc1ccccc1)C(=O)N[C@@H](CC(C)C)C(=O)N[C@@H](CCCCN)C(=O)N[C@@H](CCCCN)C(=O)N[C@@H](C)C(=O)N[C@@H](CCCCN)C(=O)N[C@@H](CCCCN)C(=O)N[C@@H](Cc1ccccc1)C(=O)N[C@@H](Cc1c[nH]c2ccccc12)C(=O)N[C@@H](CCCCN)C(N)=O` [MSI-1] (H-GIWKFLKKAKKFWK-NH2) had a PI-positive rate in the series with E. coli [1] of 80.4%. Besides, the “leakage of Calcein” value in series [2] was “over 80%”. Moreover, the “activity in the supernatants (β-galactosidase release, relative to sonicated bacteria)” value is reported as 36.7% in the series with E. coli [3] (2× MIC) and 80.7% with E. coli [3] (4× MIC). In the series “Plasma stability” (20% fresh mouse plasma, 37 °C, 0.5 h, HPLC, read-out: remaining peptide), the fraction remaining at 0.5 h, 1.6 mg/ml is around 77%. This molecule displayed a remaining peptide in “Plasma stability” (20% fresh mouse plasma, 37 °C, 2 h, HPLC) of around 67.5%. Also, the “antibacterial activities after plasma incubation” value is 97.2% in the series “Plasma stability” (20% fresh mouse plasma, 0.5 h) and 60.7% in the series “Plasma stability” (20% fresh mouse plasma, 2 h). Moreover, the bacteriostatic activity result in “Plasma stability” (either mouse plasma or serum, post 2 h coincubation (summary in the discussion)) is listed as “approximately 50%”. The fraction remaining at 2 h, 1.6 mg/ml in “Plasma stability” (fresh mouse plasma or serum (one summary value for both), either mouse plasma or serum, post 2 h coincubation (summary in the discussion), read-out: remaining peptide) was determined as 60%. Moreover, in the series with HaCaT cells, the “migration of HaCaT cells” value was “could not promote the migration”. Also, the results for the “inhibition rate against bacteria after serum incubation” value in [4] (0.5 h) and in series [4] (2 h) were 76.8% and 46.9%, respectively. For the same molecule, the “percentage of remaining MSI-1” value in “pH stability” (2 mg/ml in aqueous HCl (pH 3.0), aqueous NaOH (pH 11.0) or PBS (pH 7.0), 37 °C, within 24 h, HPLC) was 99%-100%. Further, the “effect of HCl (pH 3.0) and NaOH (pH 11.0) treatment on MIC against bacteria” value in “pH stability” (treated peptide at 1× MIC, 18 h, 600 nm) is recorded as “did not affect the MIC”. In series [5] (10 mg/kg, 12 h), the “reduction in CFU (blood and organs)” value is “approximately 2 log unit”. In [5] (10 mg/kg, 12 h post-infection, ELISA), the “decreased rates of serum IL-6 and TNF-α” value was 70%~80%. Also, the body weight result in series [5] (7 days, polymyxin 5 mg/kg) is recorded as “marked weight maintenance effect”. Besides, the “survival rate enhanced compared with the model group” value in [5] (first of three values, given 2 h post inoculation, 7 days) came to 80%; in [5] (second of three values, 7 days) it was 50%; in [5] (third of three values, 7 days) it was 30%. The “stability in pepsin solution” value at pepsin is listed as “some peptide hydrolysates might be produced”.

Values taken from PMC6956804, “Potent antibacterial activity of MSI-1 derived from the magainin 2 peptide against drug-resistant bacteria” (Theranostics, 2020).
